Values after ≈ are worked out from the molar mass of the structure shown. Like-named read-outs stand apart in the source and are kept apart here.
What was measured:
Assay type in all cases: cell-based
A. baumannii ATCC 15151 [1] = assay: Filamentation with ciprofloxacin and Compound 25 on A. baumannii; details: 18 hours
Description: A. baumannii ATCC 15151: […] The culture tubes were incubated for 18 hours at 37° C. After 18 hours incubation, took 3 μL of cells from each well and plated on microscope slide to observe the following: […]

[2] = tested on: A. baumannii ATCC BAA-1797; assay: MIC on A. baumannii ATCC BAA-1797; details: Acinetobacter baumannii
Description: A. baumannii: A. baumannii ATCC BAA-1797 was grown from a glycerol stock by placing a small volume of cells onto a MHA plate. The MHA plate was incubated overnight at 37° C. A single colony was used to inoculate MHB to obtain a bacterial broth suspension. The MHB broth suspension was grown at 37° C. on a rotary shaking incubator (100 rpm) for 12 hours. The bacterial cell concentration was adjusted to ˜5×10^5 CFU/mL in MHB or MHB+10%, 20% or 40% FBS using OD at 595 nm. 500 μL aliquots of the adjusted bacterial cell suspension were placed into borosilicate glass tubes. The cell suspensions were treated with a compound of interest, and the treatments were serially diluted two-fold. The culture tubes were incubated for 18 hours at 37° C. Efficacy was either assessed visually or by adding 10% v/v MTT (5 mg/mL stock) after the 18 hour incubation period. The cell suspensions were subsequently incubated for 10 minutes to allow the MTT reagent to carry out the colorimetric reaction. The OD was read at 595 nm.

S. aureus = assay: Evolution of resistance in S. aureus over 32 days; details: Staphylococcus aureus
Source text: Over a period of 32 days, S. aureus cells were exposed to sub-inhibitory concentrations of the indicated compound, norfloxacin, or oxacillin and sub-cultured at the newly emerged, sub-inhibitory concentration.

[3] = tested on: UmuC (error-prone polymerase); assay: UmuC gene expression by rtPCR in S. aureus; details: sub-inhibitory norfloxacin
Source text: RecA and error-prone polymerase subunit UmuC transcripts were quantitatively measured using rtPCR in S. aureus. S. aureus was challenged with sub-inhibitory concentrations of DNA-damaging norfloxacin.

A. baumannii ATCC 15151 [4] = assay: DNA degradation (agarose gel), drug-sensitive strain; details: 1.5% H2O2, 10 μg/mL ciprofloxacin, 100 μM Compound 25; 3 hours
E. coli pUC18 = assay: Nitrocefin β-lactamase assay (outer membrane disruption); details: 10 μM melittin; 10 μg/mL PME; 6, 12, 24 μM Compound 25 and 26; 100 μM Compound 27; 50 μM Compound 15; 30 minutes
Description: E. coli pUC18 was grown from a glycerol stock by placing a small volume of cells onto a MHA plate. The MHA plate was incubated overnight at 37° C. A single colony was subsequently used to inoculate MHB+100 μg/mL ampicillin to obtain a bacterial broth suspension. The MHB broth suspension was grown at 37° C. on a rotary shaking incubator (100 rpm) for 12 hours. The cells were washed 3× by centrifuging and washing with 1 mL medium 200. The washed bacterial cell concentration was adjusted to ˜1×10^7 CFU/mL in medium 200 using OD at 595 nm. The cells were treated cells with 10 μM melittin; 6, 12, 24 μM Compound 25; 6 μM, 12 μM, 24 μM Compound 26; 100 μM Compound 27; 50 μM Compound 15; and 10 μg/mL PME. The cells were incubated at 37° C. for 30 minutes; added 50 μM nitrocefin and incubated 10 minutes at 37° C.
pUC18 E. coli carry an ampicillin resistance gene and produce β-lactamase.

E. coli pNMT41 = assay: 6-chloro-4-methyl-umbelliferyl-β-D-glucuronide assay for beta-glucuronidase (inner membrane disruption); details: 10 μg/mL PME
Description: E. coli pNMT 41 was grown from a glycerol stock by placing a small volume of cells onto a MHA plate. The MHA plate was incubated overnight at 37° C. A single colony was subsequently used to inoculate MHB+100 μg/mL ampicillin to obtain a bacterial broth suspension. The MHB broth suspension was grown at 37° C. on a rotary shaking incubator (100 rpm) for 12 hours. The bacterial cell concentration was adjusted to ˜1×10^7 CFU/mL in MHB using OD at 595 nm. The cells were washed 3× by spinning by centrifuge and washing with 500 μL medium 200. The cells were resuspended in 7 mL medium 200. The cells were treated with 10 μM melittin, 6, 12, 24, and 100 μM Compound 25, and 10 μg/mL PME. The cells were incubated at 37° C. for 30 minutes. 1 μM umbelliferyl was added, and the cells were incubated further for 10 minutes at 37° C.
The cells were then incubated at 37° C. for 45 minutes. 1 μM umbelliferyl was added, and the cells were incubated further for 10 minutes at 37° C.

[5] = tested on: A. baumannii ATCC BAA-1797; assay: Colony counts of A. baumannii ATCC BAA-1797 treated with 4xMIC for 16 hours; details: 1 μg/mL PME, 1 mM PAO, compounds at 4xMIC
[6] = 10 μM melittin, 6, 12, 24, 100 μM Compound 25, 30 minutes

With `O=C(O)c1cn(C2CC2)c2cc(N3CCNCC3)c(F)cc2c1=O` [Ciprofloxacin, reference compound] the “cell morphology and growth” value (A. baumannii ATCC 15151 [1]; 125 ng/mL ciprofloxacin) was “largely elongated in morphology and growth inhibition was observed” and the “cell morphology and growth” value (A. baumannii ATCC 15151 [1]; single agent: 50 ng/mL ciprofloxacin or […] Compound 25) was “slightly elongated and some growth inhibition was observed”.
Compound `COc1ccc(/N=N/c2c(-c3ccc(OC)cc3)[nH]c3ccccc23)cc1` [Compound 46, (E)-2-(4-methoxyphenyl)-3-((4-methoxyphenyl)diazenyl)-1H-indole] has an MIC ([2]; ATCCBAA1797, 18 h, read-out: MIC in the presence of 40% FBS, A. baumannii ATCC BAA-1797, 40% FBS) of over 100 µM, an MIC ([2]; ATCCBAA1797, A. baumannii ATCC BAA-1797, absence of serum, read-out: MIC in the absence of serum) of over 100 µM and an MIC (S. aureus; 0 h, read-out: Initial MIC Day 0) of 1 to 2 µM (≈ 0.357 to 0.715 µg/mL). The MIC (S. aureus; read-out: Final MIC Day 32) was 1 to 2 µM (≈ 0.357 to 0.715 µg/mL) and the “UmuC (error-prone polymerase) gene expression” value [3] was “transcriptional inhibition”.
`OO` [Compound H2O2, hydrogen peroxide, reference compound] was tested, and the DNA degradation (A. baumannii ATCC 15151 [4]) was “degraded DNA completely”.
`CC[C@H](C)[C@H](NC(=O)CN)C(=O)NCC(=O)N[C@@H](C)C(=O)N[C@H](C(=O)N[C@@H](CC(C)C)C(=O)N[C@@H](CCCCN)C(=O)N[C@H](C(=O)N[C@@H](CC(C)C)C(=O)N[C@H](C(=O)N[C@H](C(=O)NCC(=O)N[C@@H](CC(C)C)C(=O)N1CCC[C@H]1C(=O)N[C@@H](C)C(=O)N[C@@H](CC(C)C)C(=O)N[C@H](C(=O)N[C@@H](CO)C(=O)N[C@@H](Cc1c[nH]c2ccccc12)C(=O)N[C@H](C(=O)N[C@@H](CCCCN)C(=O)N[C@@H](CCCNC(=N)N)C(=O)N[C@@H](CCCCN)C(=O)N[C@@H](CCCNC(=N)N)C(=O)N[C@@H](CCC(N)=O)C(=O)N[C@@H](CCC(N)=O)C(N)=O)[C@@H](C)CC)[C@@H](C)CC)[C@@H](C)O)[C@@H](C)O)C(C)C)C(C)C` [Melittin, melittin] was tested, and the “outer membrane disruption (β-lactamase leakage, nitrocefin colour)” value (E. coli pUC18) was “high concentration of β-lactamase in the supernatant” and the “inner membrane disruption (GUS fluorescence)” value (from here on “inner membrane disruption”) (E. coli pNMT41; [6]) was “disrupt inner membrane”.
polymyxin E [PME] was tested, and the “cell viability after 16 hours of treatment” value [5] was “cells were still viable”, the “outer membrane disruption (β-lactamase leakage, nitrocefin colour)” value (E. coli pUC18) was “high concentration of β-lactamase in the supernatant” and the “inner membrane disruption” value (E. coli pNMT41; [6]) was “disrupt inner membrane”. The “inner membrane disruption” value (E. coli pNMT41; separate experiment, 12.5 μM Compound 14, 45 minutes) was “disrupts inner membrane”.
